Patent publication US11603373B2, “TDO2 and IDO1 inhibitors” (Genentech, Inc., priority 2017, dated 2023)

Columns and labels:
[1] = target: T1, IDO1 (A172+IFNg cells, high IDO expressing cells) (Homo sapiens, UniProt P14902); assay: NFK GreenScreen cell assay, inhibition of IDO in A172+IFNg cells; type: cell-based; settings: read-out: IDO cell Fluor EC50
T1 construct: A172+IFNg cells (high IDO expressing cells); endogenous in cells; host or cells: A172 cells induced with 100 ng/ml IFNγ
Text: (§1) Cells are counted on a Vi-Cell (Beckman Coulter). […] The final DMSO concentration is 0.5%.

[2] = target: T2, TDO2 (SW48 cells, high TDO expressing cells) (Homo sapiens, UniProt P48775); assay: NFK GreenScreen cell assay, inhibition of TDO in SW48 cells; type: cell-based; settings: read-out: TDO2 Cell Fluor EC50
T2 construct: SW48 cells (high TDO expressing cells); endogenous in cells; host or cells: SW48 cells
T2 sequence (P48775 whole entry): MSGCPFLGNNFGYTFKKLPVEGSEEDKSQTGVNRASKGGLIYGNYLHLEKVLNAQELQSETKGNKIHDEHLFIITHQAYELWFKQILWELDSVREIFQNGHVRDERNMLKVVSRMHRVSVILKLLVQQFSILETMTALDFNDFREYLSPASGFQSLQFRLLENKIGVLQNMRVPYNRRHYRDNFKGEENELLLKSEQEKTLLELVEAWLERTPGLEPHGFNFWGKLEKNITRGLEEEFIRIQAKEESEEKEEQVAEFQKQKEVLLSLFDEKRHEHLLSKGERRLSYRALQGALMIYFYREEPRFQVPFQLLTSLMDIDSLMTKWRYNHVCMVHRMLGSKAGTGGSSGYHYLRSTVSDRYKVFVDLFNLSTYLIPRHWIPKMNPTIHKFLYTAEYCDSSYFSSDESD
Text: as §1

T1 sequence (P14902 whole entry): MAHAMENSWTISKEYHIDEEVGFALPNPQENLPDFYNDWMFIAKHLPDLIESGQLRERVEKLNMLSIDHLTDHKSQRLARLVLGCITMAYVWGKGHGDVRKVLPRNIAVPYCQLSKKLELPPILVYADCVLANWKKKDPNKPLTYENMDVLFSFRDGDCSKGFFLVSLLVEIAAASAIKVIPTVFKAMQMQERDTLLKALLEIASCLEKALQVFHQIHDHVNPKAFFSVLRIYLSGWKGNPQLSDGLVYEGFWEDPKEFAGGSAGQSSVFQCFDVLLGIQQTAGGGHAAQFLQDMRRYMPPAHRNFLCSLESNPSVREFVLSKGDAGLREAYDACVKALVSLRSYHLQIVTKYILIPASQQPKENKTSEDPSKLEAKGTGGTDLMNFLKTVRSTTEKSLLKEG

SMILES | EC50 [1] | EC50 [2]
Cc1noc(C)c1S(=O)(=O)N1CCC2(CC1)C[C@@H]([C@H]1c3ccccc3-c3cncn31)[C@H]2O [compound 31] | 150 nM | 2200 nM
Cc1ccncc1S(=O)(=O)N1CCC2(CC1)C[C@@H]([C@H]1c3ccccc3-c3cncn31)[C@H]2O [compound 32, (1R,2S)-2-((S)-5H-imidazo[5,1-a]isoindol-5-yl)-7-((4-methylpyridin-3-yl)sulfonyl)-7-azaspiro[3.5]nonan-1-ol] | 49 nM | 300 nM
O=C(CCc1cccnc1)N1CCC2(CC1)CC(C1c3ccccc3-c3cncn31)C2O (centres unmarked) [compound 33, 1-[3-hydroxy-2-(5H-imidazo[1,5-b]isoindol-5-yl)-7-azaspiro[3.5]nonan-7-yl]-3-(3-pyridyl)propan-1-one] | 490 nM | 840 nM
CC(=O)N(C)c1ccc(S(=O)(=O)N2CCC3(CC2)C[C@@H]([C@H]2c4ccccc4-c4cncn42)[C@H]3O)cc1 [compound 34, N-[4-[[3-hydroxy-2-(5H-imidazo[1,5-b]isoindol-5-yl)-7-azaspiro[3.5]nonan-7-yl]sulfonyl]phenyl]-N-methyl-acetamide] | 32 nM | 480 nM
CC(=O)N1CCC(S(=O)(=O)N2CCC3(CC2)CC(C2c4ccccc4-c4cncn42)C3O)CC1 (centres unmarked) [compound 35, 1-[4-[[3-hydroxy-2-(5H-imidazo[1,5-b]isoindol-5-yl)-7-azaspiro[3.5]nonan-7-yl]sulfonyl]-1-piperidyl]ethanone] | 140 nM | 460 nM
O=S(=O)(C1CCC1)N1CCC2(CC1)C[C@@H]([C@H]1c3ccccc3-c3cncn31)[C@H]2O [compound 36, 7-cyclobutylsulfonyl-2-(5H-imidazo[1,5-b]isoindol-5-yl)-7-azaspiro[3.5]nonan-3-ol] | 35 nM | 150 nM
CN1C(=O)Cc2cc(S(=O)(=O)N3CCC4(CC3)CC(C3c5ccccc5-c5cncn53)C4O)ccc21 (centres unmarked) [compound 37, 5-[[3-hydroxy-2-(5H-imidazo[1,5-b]isoindol-5-yl)-7-azaspiro[3.5]nonan-7-yl]sulfonyl]-1-methyl-indolin-2-one] | 230 nM | 1100 nM
O=C(c1cnn2c1OCCC2)N1CCC2(CC1)CC(C1c3ccccc3-c3cncn31)C2O (centres unmarked) [compound 38, 6,7-dihydro-5H-pyrazolo[5,1-b][1,3]oxazin-3-yl-[3-hydroxy-2-(5H-imidazo[1,5-b]isoindol-5-yl)-7-azaspiro[3.5]nonan-7-yl]methanone] | 630 nM | 2300 nM
O=C(CN1CCCCC1=O)N1CCC2(CC1)CC(C1c3ccccc3-c3cncn31)C2O (centres unmarked) [compound 39, 1-[2-[3-hydroxy-2-(5H-imidazo[1,5-b]isoindol-5-yl)-7-azaspiro[3.5]nonan-7-yl]-2-oxo-ethyl]piperidin-2-one] | 3300 nM | 3900 nM
CN1CCC(C(=O)N2CCC3(CC2)CC(C2c4ccccc4-c4cncn42)C3O)CC1=O (centres unmarked) [compound 40, 4-[3-hydroxy-2-(5H-imidazo[1,5-b]isoindol-5-yl)-7-azaspiro[3.5]nonane-7-carbonyl]-1-methyl-piperidin-2-one] | 7000 nM | 9200 nM
CC(C(=O)N1CCC2(CC1)C[C@@H]([C@H]1c3ccccc3-c3cncn31)[C@H]2O)n1cncn1 (some centres unmarked) [compound 41, 1-[3-hydroxy-2-(5H-imidazo[1,5-b]isoindol-5-yl)-7-azaspiro[3.5]nonan-7-yl]-2-(1,2,4-triazol-1-yl)propan-1-one] | 1500 nM | 3400 nM
CC(NC=O)C(=O)N1CCC2(CC1)CC(C1c3ccccc3-c3cncn31)C2O (centres unmarked) [compound 42, N-[2-[3-hydroxy-2-(5H-imidazo[1,5-b]isoindol-5-yl)-7-azaspiro[3.5]nonan-7-yl]-1-methyl-2-oxo-ethyl]formamide] | 1100 nM | 4100 nM
O=C(C1CC1)N1CCC2(CC1)CC(C1c3ccccc3-c3cncn31)C2O (centres unmarked) [compound 43, cyclopropyl-[3-hydroxy-2-(5H-imidazo[1,5-b]isoindol-5-yl)-7-azaspiro[3.5]nonan-7-yl]methanone] | 360 nM | 850 nM
Cn1ccc(S(=O)(=O)N2CCC3(CC2)CC(C2c4ccccc4-c4cncn42)C3O)n1 (centres unmarked) [compound 44, 2-(5H-imidazo[1,5-b]isoindol-5-yl)-7-(1-methylpyrazol-3-yl)sulfonyl-7-azaspiro[3.5]nonan-3-ol] | 82 nM | 280 nM
O=C(C1CCOCC1)N1CCC2(CC1)C[C@@H]([C@H]1c3ccccc3-c3cncn31)[C@H]2O [compound 45, [3-hydroxy-2-(5H-imidazo[1,5-b]isoindol-5-yl)-7-azaspiro[3.5]nonan-7-yl]-tetrahydropyran-4-yl-methanone] | 2400 nM | 2100 nM
O=C(C1CCOC1)N1CCC2(CC1)C[C@@H]([C@H]1c3ccccc3-c3cncn31)[C@H]2O (some centres unmarked) [compound 46, [3-hydroxy-2-(5H-imidazo[1,5-b]isoindol-5-yl)-7-azaspiro[3.5]nonan-7-yl]-tetrahydrofuran-3-yl-methanone] | 2000 nM | 2400 nM

SMILES | EC50 [1] | EC50 [2]
COCCC(=O)N1CCC2(CC1)C[C@@H]([C@H]1c3ccccc3-c3cncn31)[C@H]2O [compound 47, 1-[3-hydroxy-2-(5H-imidazo[1,5-b]isoindol-5-yl)-7-azaspiro[3.5]nonan-7-yl]-3-methoxy-propan-1-one] | 850 nM | 850 nM
O=C(C1CCC1)N1CCC2(CC1)C[C@@H]([C@H]1c3ccccc3-c3cncn31)[C@H]2O [compound 48, cyclobutyl-[3-hydroxy-2-(5H-imidazo[1,5-b]isoindol-5-yl)-7-azaspiro[3.5]nonan-7-yl]methanone] | 350 nM | 730 nM
CCC(=O)N1CCC2(CC1)CC(C1c3ccccc3-c3cncn31)C2O (centres unmarked) [compound 49, 1-[3-hydroxy-2-(5H-imidazo[1,5-b]isoindol-5-yl)-7-azaspiro[3.5]nonan-7-yl]propan-1-one] | 560 nM | 530 nM
CN(C)C(=O)CCC(=O)N1CCC2(CC1)CC(C1c3ccccc3-c3cncn31)C2O (centres unmarked) [compound 50, 4-[3-hydroxy-2-(5H-imidazo[1,5-b]isoindol-5-yl)-7-azaspiro[3.5]nonan-7-yl]-N,N-dimethyl-4-oxo-butanamide] | 1500 nM | 1300 nM
O=C(CC1CCOCC1)N1CCC2(CC1)CC(C1c3ccccc3-c3cncn31)C2O (centres unmarked) [compound 51, 1-[3-hydroxy-2-(5H-imidazo[1,5-b]isoindol-5-yl)-7-azaspiro[3.5]nonan-7-yl]-2-tetrahydropyran-4-yl-ethanone] | 390 nM | 220 nM
O=C(CN1CCCC1=O)N1CCC2(CC1)C[C@@H]([C@H]1c3ccccc3-c3cncn31)[C@H]2O [compound 52, 1-[2-[3-hydroxy-2-(5H-imidazo[1,5-b]isoindol-5-yl)-7-azaspiro[3.5]nonan-7-yl]-2-oxo-ethyl]pyrrolidin-2-one] | 3900 nM | 3700 nM
CN1CC(C(=O)N2CCC3(CC2)CC(C2c4ccccc4-c4cncn42)C3O)CC1=O (centres unmarked) [compound 53, 4-[3-hydroxy-2-(5H-imidazo[1,5-b]isoindol-5-yl)-7-azaspiro[3.5]nonane-7-carbonyl]-1-methyl-pyrrolidin-2-one] | 6700 nM | 9900 nM
Cc1cc(CC(=O)N2CCC3(CC2)C[C@@H]([C@H]2c4ccccc4-c4cncn42)[C@H]3O)no1 [compound 54, 1-[3-hydroxy-2-(5H-imidazo[1,5-b]isoindol-5-yl)-7-azaspiro[3.5]nonan-7-yl]-2-(5-methylisoxazol-3-yl)ethanone] | 240 nM | 370 nM
Cn1cc(CCC(=O)N2CCC3(CC2)C[C@@H]([C@H]2c4ccccc4-c4cncn42)[C@H]3O)cn1 [compound 55, 1-[3-hydroxy-2-(5H-imidazo[1,5-b]isoindol-5-yl)-7-azaspiro[3.5]nonan-7-yl]-3-(1-methylpyrazol-4-yl)propan-1-one] | 510 nM | 810 nM
CC(=O)N1CCC2(CC1)C[C@@H]([C@H]1c3ccccc3-c3cncn31)[C@H]2O [compound 56, 1-[3-hydroxy-2-(5H-imidazo[1,5-b]isoindol-5-yl)-7-azaspiro[3.5]nonan-7-yl]ethanone] | 660 nM | 790 nM
O=C(OCC(F)F)N1CCC2(CC1)C[C@@H]([C@H]1c3ccccc3-c3cncn31)[C@H]2O [compound 57, 2,2-difluoroethyl (2S,3R)-3-hydroxy-2-[(5S)-5H-imidazo[1,5-b]isoindol-5-yl]-7-azaspiro[3.5]nonane-7-carboxylate] | 87 nM | 260 nM
O=C(NCC(F)F)N1CCC2(CC1)C[C@@H]([C@H]1c3ccccc3-c3cncn31)[C@H]2O [compound 58, N-(2,2-difluoroethyl)-3-hydroxy-2-(5H-imidazo[1,5-b]isoindol-5-yl)-7-azaspiro[3.5]nonane-7-carboxamide] | 350 nM | 340 nM
N#CC1(C(=O)N2CCC3(CC2)C[C@@H]([C@H]2c4ccccc4-c4cncn42)[C@H]3O)CC1 [compound 61, 1-[3-hydroxy-2-(5H-imidazo[1,5-b]isoindol-5-yl)-7-azaspiro[3.5]nonan-7-carbonyl]cyclopropanecarbonitrile] | 120 nM | 470 nM
Cc1cc(CC(=O)N2CCC3(CC2)CC(C2c4ccccc4-c4cncn42)C3O)on1 (centres unmarked) [compound 63, 1-[3-hydroxy-2-(5H-imidazo[1,5-b]isoindol-5-yl)-7-azaspiro[3.5]nonan-7-yl]-2-(3-methylisoxazol-5-yl)ethanone] | 160 nM | 310 nM
NC(=O)N1CCCC(C(=O)N2CCC3(CC2)CC(C2c4ccccc4-c4cncn42)C3O)C1 (centres unmarked) [compound 64, 3-[3-hydroxy-2-(5H-imidazo[1,5-b]isoindol-5-yl)-7-azaspiro[3.5]nonane-7-carbonyl]piperidine-1-carboxamide] | 17000 nM | 13000 nM
